Measured values: BigSolDB 2.1

COC1=CC(=O)C[C@@H](C)[C@]12Oc1c(Cl)c(OC)cc(OC)c1C2=O
solubility (mole fraction)
Conditions	278.15 K	283.15 K	288.15 K	293.15 K	298.15 K	303.15 K	308.15 K	313.15 K	318.15 K	323.15 K
in DMF	0.00484	0.00541	0.0061	0.00703	0.00811	0.00933	0.0106	0.012	0.0136	0.0155
in NMP	0.0324	0.0344	0.0369	0.0394	0.0425	0.045	0.0479	0.0511	0.0541	0.0573
in acetonitrile	0.00331	0.00369	0.00418	0.00473	0.00536	0.00611	0.00697	0.00795	0.00899	0.0102
in ethanol	0.000218	0.000255	0.000303	0.00037	0.000446	0.000542	0.00065	0.000779	0.000928	0.00112
in methanol	0.000246	0.00028	0.000332	0.000413	0.000517	0.000632	0.00077	0.000929	0.00111	0.00133
in water	1.93e-07	2.5e-07	3.08e-07	3.86e-07	4.7e-07	5.7e-07	7.18e-07	8.91e-07	1.1e-06	1.36e-06
